Measurements: patent US8785470B2, “Heterocyclic compounds and uses thereof” (Infinity Pharmaceuticals, Inc., priority 2011, dated 2014)
Where two headings read alike, the source gives them in different places.

How the values were obtained:
PI3Kγ = target: T1, PI3Kγ (Homo sapiens, UniProt P48736); assay: PI3-Kinase HTRF assay, PI3Kγ; type: biochemical; settings: bins Greater than 10 μM and Greater than 1 μM to 10 μM; 10 μM ATP, PIP2 at 10 μM
T1 construct: purchased Millipore Corporation 14-558-K
T1 sequence (P48736 whole entry): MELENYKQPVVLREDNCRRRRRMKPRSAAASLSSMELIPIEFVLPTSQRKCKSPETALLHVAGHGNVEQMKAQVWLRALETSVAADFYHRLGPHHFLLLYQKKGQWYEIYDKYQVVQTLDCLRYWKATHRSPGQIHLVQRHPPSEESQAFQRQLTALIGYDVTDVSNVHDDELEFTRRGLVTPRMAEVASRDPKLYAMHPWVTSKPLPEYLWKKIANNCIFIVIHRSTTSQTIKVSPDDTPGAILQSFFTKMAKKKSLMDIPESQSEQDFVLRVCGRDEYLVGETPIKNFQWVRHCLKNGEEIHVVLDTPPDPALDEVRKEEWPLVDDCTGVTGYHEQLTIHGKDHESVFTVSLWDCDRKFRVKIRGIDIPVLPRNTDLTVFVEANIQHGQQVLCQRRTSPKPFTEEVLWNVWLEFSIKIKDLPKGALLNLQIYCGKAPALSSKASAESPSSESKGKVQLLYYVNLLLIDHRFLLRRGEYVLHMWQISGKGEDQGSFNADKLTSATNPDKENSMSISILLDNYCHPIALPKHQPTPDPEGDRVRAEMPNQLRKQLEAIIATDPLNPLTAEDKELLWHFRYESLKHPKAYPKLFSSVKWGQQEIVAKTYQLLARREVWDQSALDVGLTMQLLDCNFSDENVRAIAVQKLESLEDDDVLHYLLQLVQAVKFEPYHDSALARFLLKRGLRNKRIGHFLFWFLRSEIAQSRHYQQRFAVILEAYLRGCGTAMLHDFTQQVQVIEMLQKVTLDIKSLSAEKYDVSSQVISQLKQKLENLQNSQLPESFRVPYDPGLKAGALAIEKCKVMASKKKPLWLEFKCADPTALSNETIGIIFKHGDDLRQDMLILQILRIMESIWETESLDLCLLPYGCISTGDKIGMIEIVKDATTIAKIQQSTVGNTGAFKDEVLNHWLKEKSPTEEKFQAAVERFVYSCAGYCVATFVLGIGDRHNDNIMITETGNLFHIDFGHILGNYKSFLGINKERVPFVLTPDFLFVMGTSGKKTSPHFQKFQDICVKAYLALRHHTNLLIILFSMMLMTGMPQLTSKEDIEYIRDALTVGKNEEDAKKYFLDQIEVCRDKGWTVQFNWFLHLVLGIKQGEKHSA
Description: (§1) A PI3-Kinase HTRF® assay kit (cat No. 33-016) purchased from Millipore Corporation was used to screen compounds provided herein. This assay used specific, high affinity binding of the GRPI pleckstrin homology (PH) domain to PIP3, the product of a Class 1A or 1B PI3 Kinase acting on its physiological substrate PIP2. During the detection phase of the assay, a complex was generated between the GST-tagged PH domain and biotinylated short chain PIP3. The biotinylated PIP3 and the GST-tagged PH domain recruited fluorophores (Streptavidin-Allophycocyanin and Europium-labeled anti-GST respectively) to form the fluorescence resonance energy transfer (FRET) architecture, generating a stable time-resolved FRET signal. The FRET complex was disrupted in a competitive manner by non-biotinylated PIP3, a product formed in the PI3 Kinase assay.
(§2) PI3 Kinase α, β, γ and δ activity was assayed using the PI3 Kinase HTRF® assay kit (catalogue No. 33-016) purchased from Millipore Corporation. Purified recombinant PI3Kα (catalogue No. 14-602-K), PI3Kβ (catalogue No. 14-603-K), PI3Kγ (catalogue No. 14-558-K) and PI3Kδ (catalogue No. 14-604-K) were obtained from Millipore Corporation. Purified recombinant PI3K enzyme was used to catalyze the phosphorylation of phosphatidylinositol 4,5-bisphosphate (PIP2 at 10 μM) to phosphatidylinositol 3,4,5-trisphosphate (PIP3) in the presence of 10 μM ATP. The assay was carried out in 384-well format and detected using a Perkin Elmer EnVision Xcite Multilabel Reader. Emission ratios were converted into percent inhibitions and imported into GraphPad Prism software. The concentration necessary to achieve inhibition of enzyme activity by 50% (IC50) was calculated using concentrations ranging from 20 μM to 0.1 nM (12-point curve). IC50 values were determined using a nonlinear regression model available in GraphPad Prism 5. […]

[1] = system: phospho-AKT in RAJI cells (PI3Kδ); assay: PI3Kδ selective assay, phospho-AKT in RAJI cells; type: cell-based; settings: RAJI cells stimulated with anti-human IgM; read-out: IC50 for phospho-AKT, RAJI cell model
Description: A compound's ability in selectively inhibiting PI3Kδ can be assessed using RAJI cells, i.e., B lymphocyte cells derived from lymphoma patients. Briefly, serum-starved RAJI cells are stimulated with anti-human IgM, thereby causing signaling through the B-cell receptors, as described in, for example, He et al., Leukemia Research (2009) 33: 798-802. B-cell receptor signaling is important for the activation, differentiation, and survival of B cells and certain B-cell derived cancers. Reduction of phospho-AKT is indicative of compounds that may inhibit B-cell proliferation and function in certain diseases. By monitoring the reduction of phospho-AKT in stimulated RAJI cells (using for example, phospho-AKT antibodies), a compound's potential efficacy in selectively inhibiting PI3Kδ can be assessed.

[2] = system: phospho-AKT in RAW 264.7 cells (PI3Kγ); assay: PI3Kγ selective assay, phospho-AKT in RAW 264.7 cells; type: cell-based; settings: Mus musculus, RAW264.7, stimulated with C5a, read-out: IC50 for phospho-AKT, RAW 264.7 cell model
Description: A compound's ability in selectively inhibiting PI3Kγ can be assessed using RAW264.7 macrophages. Briefly, serum-starved PAW264.7 cells are stimulated with a known GPCR agonist C5a. (See, e.g., Camps et al., Nature Medicine (2005) 11(9): 936-943). Cells can be treated with test compounds prior to, simultaneously with, or subsequent to the stimulation by C5a. RAW 264.7 cells respond to the complement component fragment C5a through activation of the C5a receptor, and the C5a receptor activates macrophages and induces cell migration. Test compounds' ability to inhibit C5a-mediated AKT phosphorylation is indicative of selective inhibition of PI3Kγ. Thus, by monitoring the reduction of phospho-AKT in stimulated RAW 264.7 cells (using for example, phospho-AKT antibodies), a compound's potential efficacy in selectively inhibiting PI3Kγ can be assessed.

PI3Kδ = target: T2, PI3Kδ (Homo sapiens, UniProt O00329); assay: PI3-Kinase HTRF assay, PI3Kδ; type: biochemical; settings: bins Greater than 10 μM and Greater than 1 μM to 10 μM; 10 μM ATP, PIP2 at 10 μM
T2 construct: purchased Millipore Corporation 14-604-K
T2 sequence (O00329 whole entry): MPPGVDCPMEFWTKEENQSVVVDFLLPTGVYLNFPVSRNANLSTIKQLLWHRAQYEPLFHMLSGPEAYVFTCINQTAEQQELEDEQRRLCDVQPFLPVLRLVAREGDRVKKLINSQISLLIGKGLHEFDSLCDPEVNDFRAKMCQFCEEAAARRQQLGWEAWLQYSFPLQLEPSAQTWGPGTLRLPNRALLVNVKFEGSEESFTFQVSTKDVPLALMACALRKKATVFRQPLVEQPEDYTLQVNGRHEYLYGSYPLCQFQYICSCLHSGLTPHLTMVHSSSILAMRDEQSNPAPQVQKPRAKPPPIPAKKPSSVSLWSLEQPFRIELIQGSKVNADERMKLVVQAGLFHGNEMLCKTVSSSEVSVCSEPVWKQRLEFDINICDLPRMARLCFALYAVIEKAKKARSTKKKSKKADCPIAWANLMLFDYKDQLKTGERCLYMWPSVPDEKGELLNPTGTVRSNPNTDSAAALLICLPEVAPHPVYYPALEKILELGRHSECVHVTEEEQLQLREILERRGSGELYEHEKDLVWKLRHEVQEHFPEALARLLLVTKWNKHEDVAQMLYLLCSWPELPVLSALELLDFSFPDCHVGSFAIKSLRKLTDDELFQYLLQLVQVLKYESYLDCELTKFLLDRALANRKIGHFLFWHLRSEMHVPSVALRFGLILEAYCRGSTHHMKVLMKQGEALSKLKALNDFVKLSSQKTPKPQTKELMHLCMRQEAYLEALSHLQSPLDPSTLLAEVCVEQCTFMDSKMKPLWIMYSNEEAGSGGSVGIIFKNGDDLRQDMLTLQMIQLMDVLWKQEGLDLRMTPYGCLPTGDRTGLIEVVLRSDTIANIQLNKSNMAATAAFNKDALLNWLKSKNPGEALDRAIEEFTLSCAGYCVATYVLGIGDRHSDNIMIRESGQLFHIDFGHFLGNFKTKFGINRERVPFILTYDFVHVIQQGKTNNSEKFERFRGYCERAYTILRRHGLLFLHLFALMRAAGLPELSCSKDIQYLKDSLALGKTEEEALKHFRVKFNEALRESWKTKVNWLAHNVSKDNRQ
T2 sequence (P27986 whole entry partner): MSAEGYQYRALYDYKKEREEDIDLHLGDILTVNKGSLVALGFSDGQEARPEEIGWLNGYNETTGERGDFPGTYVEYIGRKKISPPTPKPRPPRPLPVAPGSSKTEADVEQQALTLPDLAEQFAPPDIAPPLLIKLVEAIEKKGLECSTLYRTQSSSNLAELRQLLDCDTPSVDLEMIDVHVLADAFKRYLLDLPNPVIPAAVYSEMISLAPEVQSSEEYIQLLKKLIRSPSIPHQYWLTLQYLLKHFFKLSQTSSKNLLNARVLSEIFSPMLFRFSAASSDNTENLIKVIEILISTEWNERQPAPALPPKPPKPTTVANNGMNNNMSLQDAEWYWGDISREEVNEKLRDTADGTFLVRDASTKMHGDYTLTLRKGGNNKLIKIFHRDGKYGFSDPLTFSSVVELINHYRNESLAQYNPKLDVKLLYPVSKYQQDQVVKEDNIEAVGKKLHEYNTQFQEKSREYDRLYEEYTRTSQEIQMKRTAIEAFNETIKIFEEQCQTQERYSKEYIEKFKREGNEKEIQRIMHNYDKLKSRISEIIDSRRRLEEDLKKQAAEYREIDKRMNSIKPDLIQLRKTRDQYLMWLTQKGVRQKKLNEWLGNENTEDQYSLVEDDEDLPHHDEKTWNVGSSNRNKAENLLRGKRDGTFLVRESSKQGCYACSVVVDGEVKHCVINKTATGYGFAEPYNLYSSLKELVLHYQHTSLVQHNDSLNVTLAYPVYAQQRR
Description: as §1, §2

PI3Kβ = target: T3, PI3Kβ (Homo sapiens, UniProt P42338); assay: PI3-Kinase HTRF assay, PI3Kβ; type: biochemical; settings: bins Greater than 10 μM and Greater than 1 μM to 10 μM; 10 μM ATP, PIP2 at 10 μM
T3 construct: purchased Millipore Corporation 14-603-K
T3 sequence (P42338 whole entry): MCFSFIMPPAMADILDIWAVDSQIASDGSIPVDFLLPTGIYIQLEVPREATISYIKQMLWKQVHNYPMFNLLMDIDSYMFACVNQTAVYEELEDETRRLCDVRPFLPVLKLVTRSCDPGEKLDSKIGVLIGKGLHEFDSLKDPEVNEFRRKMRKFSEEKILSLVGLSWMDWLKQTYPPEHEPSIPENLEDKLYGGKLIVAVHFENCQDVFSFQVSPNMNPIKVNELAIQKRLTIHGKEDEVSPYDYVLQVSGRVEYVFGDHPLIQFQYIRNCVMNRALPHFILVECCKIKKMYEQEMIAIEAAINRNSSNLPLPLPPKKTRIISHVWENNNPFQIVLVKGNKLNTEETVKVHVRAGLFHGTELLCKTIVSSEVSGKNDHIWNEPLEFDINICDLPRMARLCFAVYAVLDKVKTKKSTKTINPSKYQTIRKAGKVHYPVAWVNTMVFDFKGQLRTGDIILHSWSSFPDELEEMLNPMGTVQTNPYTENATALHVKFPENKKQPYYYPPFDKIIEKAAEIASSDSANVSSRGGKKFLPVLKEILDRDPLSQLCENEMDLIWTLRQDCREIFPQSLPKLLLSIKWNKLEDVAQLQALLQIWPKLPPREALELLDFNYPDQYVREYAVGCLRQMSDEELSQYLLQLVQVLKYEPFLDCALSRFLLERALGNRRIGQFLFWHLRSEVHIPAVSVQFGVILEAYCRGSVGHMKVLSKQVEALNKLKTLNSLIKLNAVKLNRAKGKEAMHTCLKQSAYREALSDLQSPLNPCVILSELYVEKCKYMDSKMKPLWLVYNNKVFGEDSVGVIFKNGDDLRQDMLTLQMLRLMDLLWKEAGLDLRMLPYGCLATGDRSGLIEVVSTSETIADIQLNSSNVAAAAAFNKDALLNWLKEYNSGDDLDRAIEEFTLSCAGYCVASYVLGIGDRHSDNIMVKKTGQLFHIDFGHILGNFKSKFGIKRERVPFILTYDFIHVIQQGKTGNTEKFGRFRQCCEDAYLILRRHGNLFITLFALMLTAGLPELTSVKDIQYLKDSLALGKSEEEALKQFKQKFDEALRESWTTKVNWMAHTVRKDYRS
T3 sequence (P27986 whole entry partner): as the sequence (P27986 whole entry partner) above
In short: (§3)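 Purified recombinant human PI3Kα, β, γ or δ (0.25-0.3 μg/ml) preincubated 15 min at room temperature with compound (2% DMSO) and 10 μM PIP2, then reacted 1 h with 10 μM ATP. PIP3 product detected by competitive HTRF (GST-PH domain/biotin-PIP3); IC50 from 12-point curves, 20 μM to 0.1 nM, by nonlinear regression.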

Balb/c splenic B cells = assay: B cell activation and proliferation assay; type: cell-based; settings: Mus musculus, Greater than 1 μM to 10 μM, read-out: B cell proliferation EC50
In short: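 Balb/c splenic B cells were isolated by Ficoll gradient and magnetic separation, plated at 50.000 cells/well in RPMI/10% FBS, and pre-incubated with compound for 30 min at 37° C (0.2% DMSO). Cells were stimulated for 72 h with a cocktail of 10 μg/ml LPS or 5 μg/ml anti-mouse IgM F(ab′)2 plus 2 ng/ml IL4. Alamar Blue fluorescence (560Ex/590Em) after 5 h gave IC50 or EC50.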

PI3Kα = target: T4, PI3Kα (Homo sapiens, UniProt P42336); assay: PI3-Kinase HTRF assay, PI3Kα; type: biochemical; settings: bins Greater than 10 μM and Greater than 1 μM to 10 μM; 10 μM ATP, PIP2 at 10 μM; read-out: IC50 P13Kα
T4 construct: purchased Millipore Corporation 14-602-K
T4 sequence (P42336 whole entry): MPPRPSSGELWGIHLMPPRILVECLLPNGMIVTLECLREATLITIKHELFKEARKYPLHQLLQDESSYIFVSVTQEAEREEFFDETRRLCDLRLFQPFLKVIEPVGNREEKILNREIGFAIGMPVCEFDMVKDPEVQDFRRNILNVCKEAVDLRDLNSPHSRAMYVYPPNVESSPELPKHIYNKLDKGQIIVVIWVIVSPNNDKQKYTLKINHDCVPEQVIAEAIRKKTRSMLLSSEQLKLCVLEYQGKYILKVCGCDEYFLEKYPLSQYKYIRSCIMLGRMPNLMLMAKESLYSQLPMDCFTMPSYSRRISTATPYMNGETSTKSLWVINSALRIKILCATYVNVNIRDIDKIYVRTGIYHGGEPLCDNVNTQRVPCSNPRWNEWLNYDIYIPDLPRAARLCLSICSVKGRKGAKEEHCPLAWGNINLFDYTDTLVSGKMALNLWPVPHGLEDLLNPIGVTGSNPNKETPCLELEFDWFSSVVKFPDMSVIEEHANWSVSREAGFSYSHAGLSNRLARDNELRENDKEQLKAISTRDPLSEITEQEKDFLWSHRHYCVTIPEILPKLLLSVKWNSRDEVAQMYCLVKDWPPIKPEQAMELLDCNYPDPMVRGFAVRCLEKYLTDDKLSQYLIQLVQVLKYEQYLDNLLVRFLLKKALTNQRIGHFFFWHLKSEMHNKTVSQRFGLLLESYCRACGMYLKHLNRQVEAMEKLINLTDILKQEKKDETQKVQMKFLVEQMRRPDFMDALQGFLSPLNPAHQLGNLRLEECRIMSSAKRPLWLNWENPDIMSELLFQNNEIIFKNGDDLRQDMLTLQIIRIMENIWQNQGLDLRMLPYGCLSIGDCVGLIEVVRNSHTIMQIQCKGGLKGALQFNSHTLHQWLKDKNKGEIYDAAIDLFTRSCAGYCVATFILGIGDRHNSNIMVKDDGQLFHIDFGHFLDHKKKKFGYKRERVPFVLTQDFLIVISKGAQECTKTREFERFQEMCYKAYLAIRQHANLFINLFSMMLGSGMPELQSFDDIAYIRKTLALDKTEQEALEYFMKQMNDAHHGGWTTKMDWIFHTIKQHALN
T4 sequence (P27986 whole entry partner): as the sequence (P27986 whole entry partner) above
In short: as §3

[3] = ranges less than 100 nM and between 100 nM and 1 μM (given as 100-1000)

| SMILES | IC50 (PI3Kγ) [nM] | IC50 [1] [nM] | IC50 (PI3Kδ) [nM] | IC50 (PI3Kβ) [nM] | other results |
| --- | --- | --- | --- | --- | --- |
| COc1ncc(-c2cccc3cc([C@H](C)Nc4nc(N)ncc4C#N)n(-c4ccon4)c(=O)c23)cn1 [Compound 333] | 1000 to 10000 | < 100 |  |  | IC50 ([2]; range between 1 μM and 10 μM): 1000 to 10000 nM |
| COc1cc(-c2cccc3cc([C@H](C)Nc4nc(N)ncc4C(=O)N(C)CCO)n(-c4ccccc4)c(=O)c23)ccn1 [Compound 114] | 1000 to 10000 |  | 1000 to 10000 |  |  |
| C[C@H](Nc1nc(N)ncc1C#N)c1cc2cccc(Cl)c2c(=O)n1-c1c(F)cccc1F [Compound 279] |  | < 100 | 1000 to 10000 | 1000 to 10000 | IC50 [2, 3]: < 100 nM |
| C[C@H](Nc1cc(Cl)ncc1C#N)c1cc2cccc(Cl)c2c(=O)n1-c1ccccc1 [Compound 429] |  |  | 1000 to 10000 |  |  |
| C[C@H](Nc1nc(N)ncc1-c1ccccc1)c1cc2cccc(Cl)c2c(=O)n1-c1ccccc1 [Compound 82, (S)-3-(1-(2-amino-5-phenylpyrimidin-4-ylamino)ethyl)-8-chloro-2-phenylisoquinolin-1(2H)-one] |  |  | 1000 to 10000 |  | EC50 (Balb/c splenic B cells): 1000 to 10000 nM |
| CC(=O)Nc1cnc(N)nc1N[C@@H](C)c1cc2cccc(Cl)c2c(=O)n1-c1ccccc1 [Compound 173] | 1000 to 10000 |  |  |  |  |
| CCN(C)C(=O)c1cnc(N)nc1N[C@@H](C)c1cc2cccc(-c3ccnc(OC)c3)c2c(=O)n1-c1ccccc1 [Compound 155] |  |  | 1000 to 10000 |  |  |
| COC(=O)c1cccc(-n2c([C@H](C)Nc3nc(N)ncc3C#N)cc3cccc(Cl)c3c2=O)c1 [Compound 316] | 1000 to 10000 | < 100 |  |  | IC50 (PI3Kα): 1000 to 10000 nM; IC50 [2, 3]: < 100 nM |
| COc1ncc(-c2cccc3cc([C@H](C)Nc4ncnc(N)c4C#N)n(-c4ccon4)c(=O)c23)cn1 [Compound 337] | 1000 to 10000 | < 100 |  |  | IC50 (PI3Kα): 1000 to 10000 nM; IC50 ([2]; range between 1 μM and 10 μM): 1000 to 10000 nM |
| COc1cccc2cc([C@H](C)Nc3nc(N)ncc3C#N)n(-c3ccccc3)c(=O)c12 [Compound 148] |  |  | 1000 to 10000 |  |  |
| COc1cc(-n2c([C@H](C)Nc3nc(N)ncc3C#N)cc3cccc(Cl)c3c2=O)ccc1F [Compound 291] |  | < 100 | 1000 to 10000 | 1000 to 10000 | IC50 [2, 3]: < 100 nM |
| Cc1ncc(-c2cccc3cc([C@H](C)Nc4nc(N)ncc4C#N)n(-c4ccon4)c(=O)c23)cn1 [Compound 334] | 1000 to 10000 | < 100 |  |  | IC50 ([2]; range between 1 μM and 10 μM): 1000 to 10000 nM |
| C[C@H](Nc1cc(N)ncn1)c1cc2cccc(Cl)c2c(=O)n1-c1ccccc1 [Compound 78, (S)-3-(1-(6-aminopyrimidin-4-ylamino)ethyl)-8-chloro-2-phenylisoquinolin-1(2H)-one] | 1000 to 10000 |  |  |  |  |
| C[C@H](Nc1nc(Cl)ncc1[N+](=O)[O-])c1cc2cccc(Cl)c2c(=O)n1-c1ccccc1 [Compound 75, (S)-8-chloro-3-(1-(2-chloro-5-nitropyrimidin-4-ylamino)ethyl)-2-phenylisoquinolin-1(2H)-one] | 1000 to 10000 |  |  |  |  |
| C[C@H](Nc1ncnc(N)c1C#N)c1cc2cccc(Cl)c2c(C(=O)NC2CCOCC2)n1 [Compound 353] | 1000 to 10000 | < 100 |  |  | IC50 ([2]; range between 1 μM and 10 μM): 1000 to 10000 nM |
| C[C@H](Nc1nc(N)ncc1C#N)c1cc2cccc(Cl)c2c(=O)n1-c1ccc(C#N)cc1 [Compound 220] |  |  | 1000 to 10000 | 1000 to 10000 |  |
| COc1cc(-c2cccc3cc([C@H](C)Nc4nc(N)ncc4C(=O)N4CCC4)n(-c4ccccc4)c(=O)c23)ccn1 [Compound 154] |  |  | 1000 to 10000 |  |  |
| C[C@H](Nc1nc(N)ncc1C#N)c1cc2cccc(-c3cncc(NS(C)(=O)=O)c3)c2c(=O)n1-c1ccccc1 [Compound 191] |  | < 100 | 1000 to 10000 | 1000 to 10000 | IC50 (PI3Kα): 1000 to 10000 nM; IC50 ([2]; range between 1 μM and 10 μM): 1000 to 10000 nM |
| C[C@H](Nc1nc(N)ncc1C#N)c1cc2cccc(Cl)c2c(=O)n1-c1ccc(F)c(F)c1 [Compound 270] |  | < 100 | 1000 to 10000 | 1000 to 10000 | IC50 [2, 3]: < 100 nM |
| C[C@H](Nc1nc(N)ncc1-c1ccc(S(C)(=O)=O)nc1)c1cc2cccc(Cl)c2c(=O)n1-c1ccccc1 [Compound 402] |  | < 100 | 1000 to 10000 | 1000 to 10000 | IC50 ([2]; range between 1 μM and 10 μM): 1000 to 10000 nM |
| C[C@H](Nc1nc(N)ncc1C#N)c1cc2cccc(-c3ccc(=O)n(C)c3)c2c(=O)n1-c1ccon1 [Compound 338] |  | < 100 | 1000 to 10000 | 1000 to 10000 | IC50 (PI3Kα): 1000 to 10000 nM; IC50 ([2]; range between 1 μM and 10 μM): 1000 to 10000 nM |
| C[C@H](Nc1nc(N)ncc1C(=O)N1CCC1)c1cc2cccc(Cl)c2c(=O)n1-c1ccccc1 [Compound 433] |  |  | 1000 to 10000 |  |  |
| COc1cnc(-c2cccc3cc([C@H](C)Nc4nc(N)ncc4C#N)n(-c4ccccc4)c(=O)c23)nc1 [Compound 228] |  |  | 1000 to 10000 |  |  |
| C[C@H](Nc1nc(N)ncc1C#N)c1cc2cccc(Cl)c2c(=O)n1C1CC1 [Compound 104] |  | < 100 | 1000 to 10000 | 1000 to 10000 | IC50 [2, 3]: 100 to 1000 nM |
| C[C@H](Nc1nc(N)ncc1S(C)(=O)=O)c1cc2cccc(Cl)c2c(=O)n1-c1ccccc1 [Compound 85, (S)-3-(1-(2-amino-5-(methylsulfonyl)pyrimidin-4-ylamino)ethyl)-8-chloro-2-phenylisoquinolin-1(2H)-one] |  |  | 1000 to 10000 |  |  |
| C[C@H](Nc1nc(N)ncc1-c1cncc(S(C)(=O)=O)c1)c1cc2cccc(Cl)c2c(=O)n1-c1ccccc1 [Compound 401] |  | < 100 | 1000 to 10000 | 1000 to 10000 | IC50 (PI3Kα): 1000 to 10000 nM; IC50 [2, 3]: 100 to 1000 nM |
